Test results from paper PMC8528301 (PLoS ONE, 2021).
Several values for one entry are separate records, joined by “and”; a condition that tells them apart may be missing. Equal entries are not always repeated.

How the values were obtained:
[1] = DEX single oral gavage plasma pharmacokinetics (NLME modeling); details: individual mice, oral gavage;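 note: plasma concentration-time data analysed by nonlinear mixed-effects modeling in Monolix with SAEM estimation, models built on apparent clearance, distribution volume and absorption rate constant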
Method: (§1) Blood was collected via saphenous/retro-orbital vein at time points: 0.25, 0.75, 0.5, 1, 1.5, 2, 4, 8, 16 hours after treatment. Three sets of mice were used for this experiment, where set 1 was sampled at 2,4,8 hr; set 2 at 0.25, 0.75, 1.5 hr; set 3 at 0.5, 1 and 16 hr. Samples were centrifuged at 10,000 rpm for 2 minutes, plasma was removed and stored at -80°C until further analysis.
(§2) Briefly, parameters and the Fisher Information Matrix (FIM) were estimated using the stochastic approximation expectation maximization (SAEM) algorithm, and the final log-likelihood estimated with importance sampling, all using the default Monolix initial settings, except that 1000 iterations were permitted for estimation of FIM using stochastic approximation. A variety of models were fit to the respective compound’s Ct data, parameterized using apparent clearances, volumes of distribution, and absorption rate constant as needed. […] A log-normal inter-individual and inter-occasion parameter distribution was assumed on selected supported parameters, with both on- and off-diagonal elements of parameter covariance matrices tested. Additive and/or proportional error models were tested and implemented as supported. Beal’s M3 method was used to fit any data that were below the LLOQ or above the upper limit of the assay range [20]. […] Additionally, Wald test P values were outputted for each covariate effect by the Monolix software.
(§3) Additionally, Wald test P values were outputted for each covariate effect by the Monolix software.

in vivo = details: female, C57BL/6, mouse, plasma, po, 2 mg/kg
Method: as §1, §2, §3

[2] = Repeated discontinuous oral DEX PK study (another 60 mice); type: in vivo, mouse; details: for share of mice with measurable DEX / share of mice with DEX plasma concentration below LLOQ: Days 3.5+10.5; for share of mice with DEX plasma concentration below LLOQ: LLOQ = 5 nM; for concentration at 3.5 day / concentration at 10.5 day / concentration at 17.5 day: 8 mg/L, Average ± S.D. of quantifiable samples
Method: 1 g/L of tetracycline (Sigma-Aldrich Inc, St. Louis, MO, USA) was added during both phases. Assuming that mice drink 5 mL of water per day, the dose they receive would be 1.6–2 mg/kg/day. […] At the end of in vivo procedures, all plasma samples were transferred from dry ice and stored at –80°C until analysis.

C[C@@H]1C[C@H]2[C@@H]3CCC4=CC(=O)C=C[C@]4(C)[C@@]3(F)[C@@H](O)C[C@]2(C)[C@@]1(O)C(=O)CO [DEX, dexamethasone]
DV (Dex oral gavage PK raw data) ([1]; time 8, SEX:F, VD3_DEF:0): 121.36 and 89.26 and 221.1 and 152.45 and 67.95
DV (Dex oral gavage PK raw data) ([1]; time 8, SEX:M, VD3_DEF:0): 74.87 and 61.36 and 52.11 and 112.04 and 269.34
DV (Dex oral gavage PK raw data) ([1]; time 8, SEX:M, VD3_DEF:1): 66.26 and 72.8
DV (Dex oral gavage PK raw data) ([1]; time 16, SEX:F, VD3_DEF:0): 29.97 and 65.92 and 14.35 and 7.95 and 53.43
DV (Dex oral gavage PK raw data) ([1]; time 16, SEX:M, VD3_DEF:0): 18.43 and 25.62 and 92.79 and 13.68 and 19.85
concentration at 2 h (in vivo): 676 ng/mL
share of mice with measurable DEX ([2]; female VD3 deficient): 100%
share of mice with DEX plasma concentration below LLOQ ([2]; female VD3 sufficient): 68%
concentration at 3.5 days ([2]; female, C57BL/6, mouse, plasma, oral, 8 mg/L in drinking water, DEX conc, individual mouse, repeated study, VD3 Suf, 3.5 Days): 52.8 nM
concentration at 10.5 days ([2]; female, C57BL/6, mouse, plasma, oral, 8 mg/L in drinking water, DEX conc, individual mouse, repeated study, VD3 Suf, 10.5 Days): 6.84 nM
concentration at 3.5 day ([2]; female, C57BL/6, mouse, plasma, oral, DEX conc, plasma, repeated study, VD3 Deficient, F, Day 3.5, n=15): 51.8 ± 86.8 nM
concentration at 10.5 day ([2]; female, C57BL/6, mouse, plasma, oral, DEX conc, plasma, repeated study, VD3 Deficient, F, Day 10.5, n=10): 116 ± 169 nM
concentration at 17.5 day ([2]; female, C57BL/6, mouse, plasma, oral, DEX conc, plasma, repeated study, VD3 Deficient, F, Day 17.5, n=5): 106 ± 65.5 nM
concentration at 3.5 day ([2]; female, C57BL/6, mouse, plasma, oral, DEX conc, plasma, repeated study, VD3 Sufficient, F, Day 3.5, n=5): 47.2 ± 9.15 nM
concentration at 10.5 day ([2]; female, C57BL/6, mouse, plasma, oral, DEX conc, plasma, repeated study, VD3 Sufficient, F, Day 10.5, n=3): 7.71 ± 1.12 nM
concentration at 17.5 day ([2]; female, C57BL/6, mouse, plasma, oral, DEX conc, plasma, repeated study, VD3 Sufficient, F, Day 17.5, n=5): 45.6 ± 27.2 nM
% BLQ ([2]; female, VD3 Def, 3.5 Days): 0%
% BLQ ([2]; female, VD3 Def, 10.5 Days): 0%
% BLQ ([2]; female, VD3 Def, 17.5 Days): 0%
% BLQ ([2]; female, VD3 Suf, 3.5 Days): 67%
% BLQ ([2]; female, VD3 Suf, 10.5 Days): 70%
% BLQ ([2]; female, VD3 Suf, 17.5 Days): 0%
share of mice with measurable DEX ([2]; male VD3 deficient): 96.5%
share of mice with DEX plasma concentration below LLOQ ([2]; male VD3 sufficient): 83%
concentration at 3.5 day ([2]; male, C57BL/6, mouse, plasma, oral, DEX conc, plasma, repeated study, VD3 Deficient, M, Day 3.5, n=13): 16 ± 16.6 nM
concentration at 10.5 day ([2]; male, C57BL/6, mouse, plasma, oral, DEX conc, plasma, repeated study, VD3 Deficient, M, Day 10.5, n=10): 48.7 ± 59.4 nM
concentration at 17.5 day ([2]; male, C57BL/6, mouse, plasma, oral, DEX conc, plasma, repeated study, VD3 Deficient, M, Day 17.5, n=5): 16.7 ± 7.19 nM
concentration at 3.5 day ([2]; male, C57BL/6, mouse, plasma, oral, DEX conc, plasma, repeated study, VD3 Sufficient, M, Day 3.5, n=5): 30.1 ± 14.4 nM
concentration at 17.5 day ([2]; male, C57BL/6, mouse, plasma, oral, DEX conc, plasma, repeated study, VD3 Sufficient, M, Day 17.5, n=5): 25.2 ± 8.2 nM
% BLQ ([2]; male, VD3 Def, 10.5 Days): 0%
% BLQ ([2]; male, VD3 Def, 17.5 Days): 0%
% BLQ ([2]; male, VD3 Suf, 10.5 Days): 100%
% BLQ ([2]; male, VD3 Suf, 17.5 Days): 0%
DEX conc, Average ± S.D. of quantifiable samples ([2]; plasma, repeated study, VD3 Deficient, F, Day 3.5, n=15): 51.832 nM
DEX conc, Average ± S.D. of quantifiable samples ([2]; plasma, repeated study, VD3 Deficient, F, Day 10.5, n=10): 116.245 nM
DEX conc, Average ± S.D. of quantifiable samples ([2]; plasma, repeated study, VD3 Deficient, F, Day 17.5, n=5): 105.912 nM
DEX conc, Average ± S.D. of quantifiable samples ([2]; plasma, repeated study, VD3 Deficient, M, Day 3.5, n=13): 15.9992 nM
DEX conc, Average ± S.D. of quantifiable samples ([2]; plasma, repeated study, VD3 Deficient, M, Day 10.5, n=10): 48.71 nM
DEX conc, Average ± S.D. of quantifiable samples ([2]; plasma, repeated study, VD3 Deficient, M, Day 17.5, n=5): 16.66 nM
DEX conc, Average ± S.D. of quantifiable samples ([2]; plasma, repeated study, VD3 Sufficient, F, Day 3.5, n=5): 47.222 nM
DEX conc, Average ± S.D. of quantifiable samples ([2]; plasma, repeated study, VD3 Sufficient, F, Day 10.5, n=3): 7.71 nM
DEX conc, Average ± S.D. of quantifiable samples ([2]; plasma, repeated study, VD3 Sufficient, F, Day 17.5, n=5): 45.604 nM
DEX conc, Average ± S.D. of quantifiable samples ([2]; plasma, repeated study, VD3 Sufficient, M, Day 3.5, n=5): 30.144 nM
DEX conc, Average ± S.D. of quantifiable samples ([2]; plasma, repeated study, VD3 Sufficient, M, Day 17.5, n=5): 25.19 nM
DEX conc, individual mouse ([2]; plasma, repeated study, female, VD3 Suf, 3.5 Days): BLQ (BLQ = BELOW the LLOQ, lower lmit of quantification = 5 nM dexamethasone)
DEX conc, individual mouse ([2]; plasma, repeated study, female, VD3 Suf, 10.5 Days): BLQ (BLQ = BELOW the LLOQ, lower lmit of quantification = 5 nM dexamethasone)
DEX conc, individual mouse ([2]; plasma, repeated study, male, VD3 Def, 3.5 Days): 9.88 nM and 17.04 nM and 5.32 nM and 11.52 nM and 38.23 nM and BLQ (BLQ = BELOW the LLOQ, lower lmit of quantification = 5 nM dexamethasone) and 6.47 nM and 59.55 nM and 8.86 nM and 29.02 nM and 4.39 nM and 6.91 nM
DEX conc, individual mouse ([2]; plasma, repeated study, male, VD3 Def, 10.5 Days): 19.46 nM and 37.99 nM and 211.48 nM and 27.59 nM and 28.34 nM and 9.45 nM and 27.41 nM
DEX conc, individual mouse ([2]; plasma, repeated study, male, VD3 Def, 17.5 Days): 12.05 nM and 27.36 nM
DEX conc, individual mouse ([2]; plasma, repeated study, male, VD3 Suf, 3.5 Days): BLQ (BLQ = BELOW the LLOQ, lower lmit of quantification = 5 nM dexamethasone)
DEX conc, individual mouse ([2]; plasma, repeated study, male, VD3 Suf, 10.5 Days): BLQ (BLQ = BELOW the LLOQ, lower lmit of quantification = 5 nM dexamethasone)
DEX conc, individual mouse ([2]; plasma, repeated study, male, VD3 Suf, 17.5 Days): 22.35 nM and 12.66 nM and 32.4 nM and 32.15 nM and 26.39 nM
% BLQ ([2]; share of plasma samples below LLOQ 5 nM, male, VD3 Suf, 3.5 Days): 67%
